Reference: PubChem BioAssay AID2060335 (Molecular Pharmacology Branch, DTP, NCI, 2025)

Test system: DU-145 multicell spheroids with HUVEC/MSC, viability
Experiment: Anticancer human tumor DU-145 cell line growth inhibition [IpAb];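 note: spheroids exposed to agents for seven days before measurement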;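 for viability, T/C: percent of DMSO vehicle control viability so 100% = untreated level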
Settings: for IC50: curve of first compound; for viability, T/C: stronger effect = lower value
Procedure, shortened: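 Multi-cell spheroids of 60% tumour cells, 25% HUVEC and 15% MSC in ultra-low-attachment U-bottom wells, treated with agents combined with ipatasertib or abemaciclib. Half-log ranges top out near clinical Cmax, or 10 microM when Cmax is unknown.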

[1] = second compound 0.1 µM, first compound 0.0316 µM
[2] = second compound 0.1 µM, first compound 0.1 µM
[3] = second compound 0.316 µM, first compound 0.0316 µM
[4] = second compound 0.316 µM, first compound 0.1 µM
[5] = second compound 1 µM, first compound 0.0316 µM
[6] = second compound 1 µM, first compound 0.1 µM

In the case of `CC(C)n1nc(-c2ccc3oc(N)nc3c2)c2c(N)ncnc21` + CCN1CCN(Cc2ccc(Nc3ncc(F)c(-c4cc(F)c5nc(C)n(C(C)C)c5c4)n3)nc2)CC1, the IC50 (second compound 0.01 µM) is reported as 1.9 nM, the IC50 (second compound 0.0316 µM) is reported as 1.49 nM and the IC50 (second compound 0.1 µM) is reported as 1.46 nM. For the same compound, the IC50 (second compound 0.316 µM) was 1.84 nM, the IC50 (second compound 1 µM) was 1.86 nM and the viability, T/C (second compound 0.01 µM, first compound 0.000316 µM) was 97.3%. It also gave a viability, T/C (second compound 0.01 µM, first compound 0.001 µM) of 64.2%, a viability, T/C (second compound 0.01 µM, first compound 0.00316 µM) of 39.3% and a viability, T/C (second compound 0.01 µM, first compound 0.01 µM) of 21.2%. It also gave a viability, T/C (second compound 0.01 µM, first compound 0.0316 µM) of 11.3%, a viability, T/C (second compound 0.01 µM, first compound 0.1 µM) of 9.72% and a viability, T/C (second compound 0.0316 µM, first compound 0.000316 µM) of 82.2%. The viability, T/C (second compound 0.0316 µM, first compound 0.001 µM) was 56%, the viability, T/C (second compound 0.0316 µM, first compound 0.00316 µM) was 38.5% and the viability, T/C (second compound 0.0316 µM, first compound 0.01 µM) was 19.9%. For the same compound, the viability, T/C (second compound 0.0316 µM, first compound 0.0316 µM) was 11.7%, the viability, T/C (second compound 0.0316 µM, first compound 0.1 µM) was 8.9% and the viability, T/C (second compound 0.1 µM, first compound 0.000316 µM) was 76.9%. It also gave a viability, T/C (second compound 0.1 µM, first compound 0.001 µM) of 56.2%, a viability, T/C (second compound 0.1 µM, first compound 0.00316 µM) of 36.9% and a viability, T/C (second compound 0.1 µM, first compound 0.01 µM) of 23.9%. It also gave a viability, T/C [1] of 12.9%, a viability, T/C [2] of 9.08% and a viability, T/C (second compound 0.316 µM, first compound 0.000316 µM) of 69.2%. For the same compound, the viability, T/C (second compound 0.316 µM, first compound 0.001 µM) was 58.8%, the viability, T/C (second compound 0.316 µM, first compound 0.00316 µM) was 40.9% and the viability, T/C (second compound 0.316 µM, first compound 0.01 µM) was 31.5%. For the same compound, the viability, T/C [3] was 16%, the viability, T/C [4] was 12.5% and the viability, T/C (second compound 1 µM, first compound 0.000316 µM) was 60.3%. It also gave a viability, T/C (second compound 1 µM, first compound 0.001 µM) of 56.5%, a viability, T/C (second compound 1 µM, first compound 0.00316 µM) of 44.4% and a viability, T/C (second compound 1 µM, first compound 0.01 µM) of 33.8%. For the same compound, the viability, T/C [5] was 25.1% and the viability, T/C [6] was 20.3%.
In the case of `CCCS(=O)(=O)Nc1ccc(F)c(C(=O)c2c[nH]c3ncc(-c4ccc(Cl)cc4)cc23)c1F` + CC(C)NCC(C(=O)N1CCN(c2ncnc3c2C(C)CC3O)CC1)c1ccc(Cl)cc1, the IC50 (second compound 0.1 µM) is reported as > 10000 nM, the IC50 (second compound 0.316 µM) is reported as > 10000 nM and the IC50 (second compound 1 µM) is reported as < 31.6 nM. For the same compound, the IC50 (second compound 3.16 µM) was < 31.6 nM, the IC50 (second compound 10 µM) was < 31.6 nM and the viability, T/C [1] was 88.2%. It also gave a viability, T/C [2] of 91.3%, a viability, T/C (second compound 0.1 µM, first compound 0.316 µM) of 86.6% and a viability, T/C (second compound 0.1 µM, first compound 1 µM) of 96.3%. For the same compound, the viability, T/C (second compound 0.1 µM, first compound 3.16 µM) was 96.7%, the viability, T/C (second compound 0.1 µM, first compound 10 µM) was 68.2% and the viability, T/C [3] was 53.9%. For the same compound, the viability, T/C [4] was 64.1%, the viability, T/C (second compound 0.316 µM, first compound 0.316 µM) was 61.4% and the viability, T/C (second compound 0.316 µM, first compound 1 µM) was 76.4%. It also gave a viability, T/C (second compound 0.316 µM, first compound 3.16 µM) of 66.8%, a viability, T/C (second compound 0.316 µM, first compound 10 µM) of 43.6% and a viability, T/C [5] of 33.1%. The viability, T/C [6] was 31.8%, the viability, T/C (second compound 1 µM, first compound 0.316 µM) was 37.7% and the viability, T/C (second compound 1 µM, first compound 1 µM) was 41.2%. The viability, T/C (second compound 1 µM, first compound 3.16 µM) was 46.3%, the viability, T/C (second compound 1 µM, first compound 10 µM) was 29.9% and the viability, T/C (second compound 3.16 µM, first compound 0.0316 µM) was 22.3%. The viability, T/C (second compound 3.16 µM, first compound 0.1 µM) was 25.9%, the viability, T/C (second compound 3.16 µM, first compound 0.316 µM) was 24.4% and the viability, T/C (second compound 3.16 µM, first compound 1 µM) was 22.4%. It also gave a viability, T/C (second compound 3.16 µM, first compound 3.16 µM) of 23.6%, a viability, T/C (second compound 3.16 µM, first compound 10 µM) of 20.3% and a viability, T/C (second compound 10 µM, first compound 0.0316 µM) of 19.6%. It also gave a viability, T/C (second compound 10 µM, first compound 0.1 µM) of 20.1%, a viability, T/C (second compound 10 µM, first compound 0.316 µM) of 19.1% and a viability, T/C (second compound 10 µM, first compound 1 µM) of 19.7%. For the same compound, the viability, T/C (second compound 10 µM, first compound 3.16 µM) was 18.3% and the viability, T/C (second compound 10 µM, first compound 10 µM) was 14.2%.
